{"source": "PubChem BioAssay (NCI)", "assay_in_all_cases": "inhibition of tumour cell growth, NCI panel, 384-well format", "key": {"BT-549 breast": {"system": "BT-549 breast"}, "HCT-116 colon": {"system": "HCT-116 colon"}, "HOP-92 NSCLC": {"system": "HOP-92 NSCLC"}, "MALME-3M melanoma": {"system": "MALME-3M melanoma"}, "MOLT-4 leukemia": {"system": "MOLT-4 leukemia"}, "OVCAR-4 ovarian": {"system": "OVCAR-4 ovarian"}, "OVCAR-8 ovarian": {"system": "OVCAR-8 ovarian"}, "RPMI-8226 leukemia": {"system": "RPMI-8226 leukemia"}, "SK-MEL-2 melanoma": {"system": "SK-MEL-2 melanoma"}, "SK-OV-3 ovarian": {"system": "SK-OV-3 ovarian"}, "UACC-257 melanoma": {"system": "UACC-257 melanoma"}, "UACC-62 melanoma": {"system": "UACC-62 melanoma"}, "UO-31 renal": {"system": "UO-31 renal"}}, "note": "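Here, GI50 denotes the concentration required for 50% inhibition of growth. TGI denotes the concentration required for complete inhibition of growth.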", "data": [{"smiles": "O=C(c1ccccc1O)c1[nH]c(Cl)c(Cl)c1-n1c(C(=O)c2ccccc2O)cc(Cl)c1Cl", "values": [{"measurement": "GI50", "setting": "BT-549 breast", "value": 631, "unit": "nM"}, {"measurement": "TGI", "setting": "BT-549 breast", "value": 1620, "unit": "nM"}, {"measurement": "GI50", "setting": "HCT-116 colon", "value": 248, "unit": "nM"}, {"measurement": "TGI", "setting": "HCT-116 colon", "value": 930, "unit": "nM"}, {"measurement": "GI50", "setting": "HOP-92 NSCLC", "value": 458, "unit": "nM"}, {"measurement": "TGI", "setting": "HOP-92 NSCLC", "value": 1160, "unit": "nM"}, {"measurement": "GI50", "setting": "MALME-3M melanoma", "value": 670, "unit": "nM"}, {"measurement": "TGI", "setting": "MALME-3M melanoma", "value": 2170, "unit": "nM"}, {"measurement": "GI50", "setting": "MOLT-4 leukemia", "value": 301, "unit": "nM"}, {"measurement": "TGI", "setting": "MOLT-4 leukemia", "value": 768, "unit": "nM"}, {"measurement": "GI50", "setting": "OVCAR-4 ovarian", "value": 936, "unit": "nM"}, {"measurement": "TGI", "setting": "OVCAR-4 ovarian", "value": 4790, "unit": "nM"}, {"measurement": "GI50", "setting": "OVCAR-8 ovarian", "value": 276, "unit": "nM"}, {"measurement": "TGI", "setting": "OVCAR-8 ovarian", "value": 959, "unit": "nM"}, {"measurement": "GI50", "setting": "RPMI-8226 leukemia", "value": 196, "unit": "nM"}, {"measurement": "TGI", "setting": "RPMI-8226 leukemia", "value": 388, "unit": "nM"}, {"measurement": "GI50", "setting": "SK-MEL-2 melanoma", "value": 333, "unit": "nM"}, {"measurement": "TGI", "setting": "SK-MEL-2 melanoma", "value": 922, "unit": "nM"}, {"measurement": "GI50", "setting": "SK-OV-3 ovarian", "value": 641, "unit": "nM"}, {"measurement": "TGI", "setting": "SK-OV-3 ovarian", "value": 2210, "unit": "nM"}, {"measurement": "GI50", "setting": "UACC-257 melanoma", "value": 461, "unit": "nM"}, {"measurement": "TGI", "setting": "UACC-257 melanoma", "value": 1650, "unit": "nM"}, {"measurement": "GI50", "setting": "UACC-62 melanoma", "value": 599, "unit": "nM"}, {"measurement": "TGI", "setting": "UACC-62 melanoma", "value": 1860, "unit": "nM"}, {"measurement": "GI50", "setting": "UO-31 renal", "value": 493, "unit": "nM"}, {"measurement": "TGI", "setting": "UO-31 renal", "value": 1820, "unit": "nM"}]}]}
